According to PubChem BioAssay AID2060509 (Molecular Pharmacology Branch, DTP, NCI, 2025):
pIC50: −log10 of the molar value.

Test system: 485176-168-R4-J1-PDC spheroids with HUVEC/MSC, viability
Test: Anticancer human tumor 485176-168-R4-J1-PDC patient-derived pancreatic adenocarcinoma cell line growth inhibition [GQUAD]
Settings: for pIC50: curve of first compound; for viability, T/C: stronger effect = lower value; active = viability on the fitted dose curve at most 10% of control; inactive = the rest
In short: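 Viability of tumor cells grown as complex spheroids with endothelial and stromal cells, exposed to drug combinations. Top concentration at or near clinical Cmax (else 10 microM), diluted in half-log increments.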

[1] = second compound 0.0316 µM, first compound 0.000999 µM
[2] = second compound 0.0316 µM, first compound 0.00316 µM
[3] = second compound 0.0316 µM, first compound 0.00999 µM
[4] = second compound 0.0316 µM, first compound 0.0316 µM
[5] = second compound 0.0316 µM, first compound 0.0999 µM
[6] = second compound 0.0316 µM, first compound 0.316 µM
[7] = second compound 0.1 µM, first compound 0.000999 µM
[8] = second compound 0.1 µM, first compound 0.00316 µM
[9] = second compound 0.1 µM, first compound 0.00999 µM
[10] = second compound 0.1 µM, first compound 0.0316 µM
[11] = second compound 0.1 µM, first compound 0.0999 µM
[12] = second compound 0.1 µM, first compound 0.316 µM
[13] = second compound 0.316 µM, first compound 0.000999 µM
[14] = second compound 0.316 µM, first compound 0.00316 µM
[15] = second compound 0.316 µM, first compound 0.00999 µM
[16] = second compound 0.316 µM, first compound 0.0316 µM
[17] = second compound 0.316 µM, first compound 0.0999 µM
[18] = second compound 0.316 µM, first compound 0.316 µM
[19] = second compound 1 µM, first compound 0.000999 µM
[20] = second compound 1 µM, first compound 0.00316 µM
[21] = second compound 1 µM, first compound 0.00999 µM
[22] = second compound 1 µM, first compound 0.0316 µM
[23] = second compound 1 µM, first compound 0.0999 µM
[24] = second compound 1 µM, first compound 0.316 µM
[25] = second compound 3.16 µM, first compound 0.000999 µM
[26] = second compound 3.16 µM, first compound 0.00316 µM
[27] = second compound 3.16 µM, first compound 0.00999 µM
[28] = second compound 3.16 µM, first compound 0.0316 µM
[29] = second compound 3.16 µM, first compound 0.0999 µM
[30] = second compound 3.16 µM, first compound 0.316 µM
[31] = second compound 10 µM, first compound 0.000999 µM
[32] = second compound 10 µM, first compound 0.00316 µM
[33] = second compound 10 µM, first compound 0.00999 µM
[34] = second compound 10 µM, first compound 0.0316 µM
[35] = second compound 10 µM, first compound 0.0999 µM
[36] = second compound 10 µM, first compound 0.316 µM
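Note: spheroids exposed to compounds for seven days before readout.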
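Throughout, for viability, T/C: percent viability relative to DMSO vehicle control wells as 100%.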

Cn1ncnc1[C@H]1c2n[nH]c(=O)c3cc(F)cc(c23)N[C@@H]1c1ccc(F)cc1 + CN(C)c1ccc(Nc2c3ccc(NC(=O)CCN4CCCC4)cc3nc3cc(NC(=O)CCN4CCCC4)ccc23)cc1
< 6.50: pIC50 (second compound 0.0316 µM) | pIC50 (second compound 0.1 µM) | pIC50 (second compound 0.316 µM) | pIC50 (second compound 1 µM) | pIC50 (second compound 3.16 µM) | pIC50 (second compound 10 µM)
inactive: viability, T/C [1] 92.1% | viability, T/C [2] 91.2% | viability, T/C [3] 101% | viability, T/C [4] 98% | viability, T/C [5] 98.9% | viability, T/C [6] 92% | viability, T/C [7] 102% | viability, T/C [8] 124% | viability, T/C [9] 107% | viability, T/C [10] 93.3% | viability, T/C [11] 110% | viability, T/C [12] 90.8% | viability, T/C [13] 101% | viability, T/C [14] 97.5% | viability, T/C [15] 95.3% | viability, T/C [16] 104% | viability, T/C [17] 106% | viability, T/C [18] 96.5% | viability, T/C [19] 108% | viability, T/C [20] 91.7% | viability, T/C [21] 114% | viability, T/C [22] 104% | viability, T/C [23] 113% | viability, T/C [24] 93.2% | viability, T/C [25] 107% | viability, T/C [26] 80.9% | viability, T/C [27] 98.6% | viability, T/C [28] 95.7% | viability, T/C [29] 89.3% | viability, T/C [30] 86.8% | viability, T/C [31] 90.1% | viability, T/C [32] 81.4% | viability, T/C [33] 79.6% | viability, T/C [34] 97.7% | viability, T/C [35] 99.5% | viability, T/C [36] 78.8%

CC[C@@]1(O)C(=O)OCc2c1cc1n(c2=O)Cc2cc3c(CN(C)C)c(O)ccc3nc2-1 + Cc1cnc(CNC(=O)c2c(=O)c3ccc(N4CCCN(C)CC4)nc3n3c2sc2ccccc23)cn1
7.36: pIC50 (second compound 0.316 µM)
7.96: pIC50 (second compound 1 µM)
6.95: pIC50 (second compound 0.0316 µM)
8.93: pIC50 (second compound 3.16 µM)
> 9.00: pIC50 (second compound 10 µM)
inactive: viability, T/C [1] 94.4% | viability, T/C [2] 84.9% | viability, T/C [3] 87.5% | viability, T/C [4] 70.3% | viability, T/C [5] 52.8% | viability, T/C [6] 29.3% | viability, T/C [7] 75.8% | viability, T/C [8] 72.1% | viability, T/C [9] 88.9% | viability, T/C [10] 60.9% | viability, T/C [11] 44.8% | viability, T/C [12] 37.1% | viability, T/C [13] 69.3% | viability, T/C [14] 62.8% | viability, T/C [15] 64% | viability, T/C [16] 52.4% | viability, T/C [17] 41.8% | viability, T/C [18] 32.2% | viability, T/C [19] 47.8% | viability, T/C [20] 55.1% | viability, T/C [21] 50.9% | viability, T/C [22] 42.4% | viability, T/C [23] 35.9% | viability, T/C [24] 33.5% | viability, T/C [25] 49.5% | viability, T/C [26] 49.4% | viability, T/C [27] 39.8% | viability, T/C [28] 41.2% | viability, T/C [29] 34.4% | viability, T/C [30] 30.8% | viability, T/C [31] 42.7% | viability, T/C [32] 44.5% | viability, T/C [33] 41.3% | viability, T/C [34] 36.4% | viability, T/C [35] 36.3% | viability, T/C [36] 27.5%
7.23: pIC50 (second compound 0.1 µM)

O=c1[nH]cc(F)c(=O)[nH]1 + Cc1cnc(CNC(=O)c2c(=O)c3ccc(N4CCCN(C)CC4)nc3n3c2sc2ccccc23)cn1
6.61: pIC50 (second compound 0.316 µM)
6.57: pIC50 (second compound 0.1 µM)
6.69: pIC50 (second compound 1 µM)
6.07: pIC50 (second compound 0.0316 µM)
> 7.50: pIC50 (second compound 3.16 µM) | pIC50 (second compound 10 µM)
inactive: viability, T/C [4] 84.7% | viability, T/C (second compound 0.0316 µM, first compound 0.1 µM) 77.4% | viability, T/C [6] 66.1% | viability, T/C (second compound 0.0316 µM, first compound 1 µM) 45.9% | viability, T/C (second compound 0.0316 µM, first compound 3.16 µM) 43.5% | viability, T/C (second compound 0.0316 µM, first compound 10 µM) 43.6% | viability, T/C [10] 63.3% | viability, T/C (second compound 0.1 µM, first compound 0.1 µM) 73.5% | viability, T/C [12] 47.2% | viability, T/C (second compound 0.1 µM, first compound 1 µM) 47.1% | viability, T/C (second compound 0.1 µM, first compound 3.16 µM) 46.4% | viability, T/C (second compound 0.1 µM, first compound 10 µM) 43.6% | viability, T/C [16] 53.8% | viability, T/C (second compound 0.316 µM, first compound 0.1 µM) 66.1% | viability, T/C [18] 47.4% | viability, T/C (second compound 0.316 µM, first compound 1 µM) 45.3% | viability, T/C (second compound 0.316 µM, first compound 3.16 µM) 35.1% | viability, T/C (second compound 0.316 µM, first compound 10 µM) 45.7% | viability, T/C [22] 50.5% | viability, T/C (second compound 1 µM, first compound 0.1 µM) 54.7% | viability, T/C [24] 48.3% | viability, T/C (second compound 1 µM, first compound 1 µM) 38.2% | viability, T/C (second compound 1 µM, first compound 3.16 µM) 36.4% | viability, T/C (second compound 1 µM, first compound 10 µM) 41% | viability, T/C [28] 40.6% | viability, T/C (second compound 3.16 µM, first compound 0.1 µM) 44.1% | viability, T/C [30] 37.2% | viability, T/C (second compound 3.16 µM, first compound 1 µM) 32.8% | viability, T/C (second compound 3.16 µM, first compound 3.16 µM) 34.5% | viability, T/C (second compound 3.16 µM, first compound 10 µM) 31.3% | viability, T/C [34] 41.5% | viability, T/C (second compound 10 µM, first compound 0.1 µM) 45% | viability, T/C [36] 33.5% | viability, T/C (second compound 10 µM, first compound 1 µM) 30.3% | viability, T/C (second compound 10 µM, first compound 3.16 µM) 34.4% | viability, T/C (second compound 10 µM, first compound 10 µM) 34.3%
